The source of these data is US8568972B2, “Substances causing differentiation” (Medicyte GmbH, priority 2000, dated 2013).

Common to all, as to type: cell-based, human
Data set [1] relates to U87H-GFP. In words: Cell cycle analysis (BrdU incorporation / 7-AAD, FACS), reporter line. The conditions noted are these: 5 μM Aza, 2 days. The procedure:
(§1) U87H-GFP and the parent cells were seeded at 5×10^3/cm^2 in T25 flasks (Nuclon, NUNC), using D-MEM without hygromycin B for both cell lines. Half of the flasks were treated with 5 μM Aza and the other, as a negative control, without any medicaments. After 42 h, BrdU was added to the medium (final concentration of 10 μM), and 6 h later the cells were prepared for cell cycle analysis. The cells were harvested, centrifuged at 500×g for 5 min and fixed in chilled 70% strength ethanol for 20 min. BrdU incorporation into the DNA was detected by using 3×10^5 cells of each Aza-treated or untreated cell line. PBS 1×/0.5% BSA (washing buffer) was added, and the cells were centrifuged at 500×g for 5 min. The pellet was then resuspended in a denaturing solution (HCl 1M, PBS 0.5×BSA 0.5%) and washed again after 20 min. This was followed by re-suspending the pellet in 0.1M sodium borate (Na2B4O7), pH 8.5, for 2 min and then adding the washing buffer. After this passage, the total volume of each sample was divided into two halves (one half being used for the isotype antibody, the other one for the BrdU antibody), centrifuged at 500×g for 5 min, resuspended in the buffer containing the anti-isotype or anti-BrdU monoclonal antibodies (Becton Dickinson) and, after 30 min, washed with PBS 1×/0.5% BSA. The supernatant was discarded and the pellet resuspended in RNAse A (final concentration 100 μg/ml); the DNA was stained by also adding to the solution 7-AAD (Via-PROBE, Becton Dickinson). After 1 h (in the dark), the samples were washed and then resuspended in PBS 1×/0.5% BSA. DNA fluorescence of the nuclei (approximately 10^4 nuclei were analyzed for each cell population) was measured by means of the abovementioned FACScan flow cytometer (Becton Dickinson) and the percentages of cells in the G0 and G1, S, G2 and M phases of the cell cycle were analyzed on the basis of the FACScan software programs.

Data set [2] relates to U87. In words: Cell cycle analysis (BrdU incorporation / 7-AAD, FACS), parent line. The conditions noted are these: U87, 5 μM Aza, 2 days. On the procedure: as §1
Data set [3] has as its system U87H-GFP. In words: Flow cytometry (FACS) of H-GFP fusion gene expression under the hCMV promoter in reporter cell line. The conditions noted are these: 48 h; for increase in the fluorescence intensity mean value: compared to untreated cells. The source says: (§2) U87H-GFP is a cell line derived from the human glioblastoma cell line U87 after stable transfection with plasmid pCMV-hygroEGFP. This plasmid which is integrated into the genomic DNA is derived from PCR-Script™ (Stratagene) and carries a fusion gene downstream of the human CMV promoter. This fusion gene contains the gene for resistance to hygromycin, which is linked to the gene coding for the enhanced green fluorescent protein (EGFP). The resulting gene (called H-GFP) codes for a protein which imparts resistance to hygromycin B and which can be readily detected by fluorescence microscopy and flow cytometry analysis. […] U87H-GFP and the parent line U87 were cultured in Dulbecco's Modified Eagle's Medium, (D-MEM, low glucose, Gibco, BRL) supplemented with 10% fetal calf serum (Seromed), 100 units/ml penicillin, 100 μg/ml streptomycin and 1 μg/ml amphotericine B (Gibco, BRL) at 37° C. in a humidified atmosphere containing 5% CO2. For the U87H-GFP cell line, the culture medium was supplemented with 600 units/ml hygromycin B (Calbiochem). U87H-GFP and the parent cells were seeded at 1-2×10^5 cells/well on 6-well plates (Nuclon, NUNC), using D-MEM without hygromycin B, and incubated for adhesion for 24 h. This was followed by adding 5-azacytidine and trichostatin A (Sigma Chemicals, Co.) at different final concentrations (2.5-5-10-20-40 μM for Aza; from 10 nM to 3 μM for TSA) to the culture medium. After two days of treatment, fluorescence microscopy and flow cytometry analyses were carried out. In order to prepare samples for FACS analysis, cells were incubated in the 6-well plates in 0.05% trypsin containing 0.5 mM EDTA (Gibco, BRL) at 37° C. for 5 min, followed by stopping the trypsin action by adding two volumes of culture medium. The cells were harvested, centrifuged at 500×g for 5 min and resuspended in 1 ml complete D-MEM. In order to stain dead cells, propidium iodide (final concentration 10 μg/ml) was added to each sample. The cells were then again centrifuged and resuspended in phosphate-buffered saline (PBS 1×, pH 7.4), before analyzing them by means of FACS. The cells were analyzed using FACScalibur (Becton Dickinson) with the flow rate corresponding to approximately 500 events/s. In order to exactly define a cell population and to exclude cell debris and aggregates, a region of interest was established on the dot plot (FSC compared to SSC). In the two-parameter histogram of propidium iodide, dead cells were distinguished by comparison to forward angle light scatter (FSC). The fluorescence intensity of individual cells was measured on a logarithmic scale, each logarithmic histogram representing 2×10^4 counted events. The fluorescence intensity mean value (MFI) was the parameter used for defining the increase in the fluorescence intensity in each cell population.

The next data set has as its system tumor cells U87. In words: Change in cell morphology (differentiation). The settings on record: high concentrations.
In data set [4] the test system is U87H-GFP. In words: Flow cytometry (FACS) of H-GFP fusion gene expression under the hCMV promoter in reporter cell line.
For data set [5], the system named is U87. In words: Flow cytometry (FACS) of background fluorescence in parent cell line (negative control line). The conditions noted are these: 48 h, parent cells.
From the text: as §2, with “In the two-parameter histogram of propidium iodide, dead cells were distinguished by comparison to forward angle light scatter (FSC).” left out

For data set [6], the system named is U87H-GFP. In words: Fluorescence microscopy of H-GFP gene expression. The settings on record: for increase in the green fluorescent signal: 48 h; for upregulation of the CMV promoter, visible due to increased GFP fluorescence: very low concentrations, within two days, after removal of hygromycin. The procedure: U87H-GFP and the parent cells were seeded at 1-2×10^5 cells/well on 6-well plates (Nuclon, NUNC), using D-MEM without hygromycin B, and incubated for adhesion for 24 h. This was followed by adding 5-azacytidine and trichostatin A (Sigma Chemicals, Co.) at different final concentrations (2.5-5-10-20-40 μM for Aza; from 10 nM to 3 μM for TSA) to the culture medium. After two days of treatment, fluorescence microscopy and flow cytometry analyses were carried out. Approximately 10^5 cells of each cell line were seeded on polylysine-coated coverslips, treated with different concentrations of Aza and TSA for 48 h and then fixed in 5% formaldehyde at room temperature for 30 min. This was followed by analyzing all samples under a fluorescence microscope (Axiophot, Zeiss, Germany) and recording various images which correspond to the different final concentrations of each medicament (FIG. 1).

In data set [7] the test system is U87H-GFP. In words: Toxicity, number of living cells observed by FACS. The conditions noted are these: final TSA concentrations of more than 3 μM (data not shown). The procedure: In order to prepare samples for FACS analysis, cells were incubated in the 6-well plates in 0.05% trypsin containing 0.5 mM EDTA (Gibco, BRL) at 37° C. for 5 min, followed by stopping the trypsin action by adding two volumes of culture medium. The cells were harvested, centrifuged at 500×g for 5 min and resuspended in 1 ml complete D-MEM. In order to stain dead cells, propidium iodide (final concentration 10 μg/ml) was added to each sample. The cells were then again centrifuged and resuspended in phosphate-buffered saline (PBS 1×, pH 7.4), before analyzing them by means of FACS.
In order to exactly define a cell population and to exclude cell debris and aggregates, a region of interest was established on the dot plot (FSC compared to SSC). In the two-parameter histogram of propidium iodide, dead cells were distinguished by comparison to forward angle light scatter (FSC). The fluorescence intensity of individual cells was measured on a logarithmic scale, each logarithmic histogram representing 2×10^4 counted events. The fluorescence intensity mean value (MFI) was the parameter used for defining the increase in the fluorescence intensity in each cell population.

Where [8] appears, read: U87H-GFP, listed as Azacytidine.

Entries after “also recorded” stand apart in the source; their conditions may differ.

With `Nc1ncn([C@@H]2O[C@H](CO)[C@@H](O)[C@H]2O)c(=O)n1` [Aza, 5′-azacytidine], in the data set on U87H-GFP [1] (U87 H-GFP), the “Percentages of cells in G1-G0” value is 61.53 ± 4.06 %, the “Percentages of cells in G2” value came out at 8.77 ± 1.44%, the “Percentages of cells in M” value was 16.26 ± 2.83 % and the “Percentages of cells in S” value is on record as 13.3 ± 3.26 %. Further, in the data set with U87H-GFP [1] (U87 H-GFP), the “change in percentage of cells in G2 versus untreated” value is “increased number” and the “effect on different cell cycle phases (apart from G2)” value is “no significant differences”. Besides, in the data set with U87H-GFP [1] (setting [8]), the “change in percentage of cells in G2 versus untreated” value is recorded as “small increase” and the “effect on different cell cycle phases (apart from G2)” value was “no significant effect”. In the data set on U87 [2], the “Percentages of cells in G1-G0” value turned out to be 62.61 ± 0.47%, the “Percentages of cells in G2” value is on record as 13.1 ± 2.36%, the “Percentages of cells in M” value is 10.58 ± 2.85% and the “Percentages of cells in S” value amounted to 13.54 ± 1.25%. Moreover, the “changes in the cell cycle phases” value in the data set with U87 [2] is “significant changes”. In the data set with U87H-GFP [3] (2.5 μM Aza), the “shift of FACS fluorescence profile toward higher fluorescence intensity” value is “already clearly visible” and the “increase in the fluorescence intensity mean value” is listed as “two-fold”. Further, in the data set on U87H-GFP [3] (20 μM Aza), the “shift of FACS fluorescence profile toward higher fluorescence intensity” value was “clearly visible; also recorded: well defined” and the “increase in the fluorescence intensity mean value” was “three-fold”. Moreover, the “change in the morphology of the cells” value in the data set on tumor cells U87 is “a change in the morphology of the cells was observed”. Further, in the data set with U87H-GFP [4] (0.5 μM Aza, 48 h), the “shift of FACS fluorescence profile toward higher fluorescence intensity” value is “completely superpose those of the untreated cells”. Also, in the data set on U87H-GFP [4] (1 μM Aza alone, 48 h, compared to untreated cells), the “increase in the fluorescence intensity mean value” is recorded as “approximately two-fold; also recorded: about a two-fold”. The “shift in the fluorescence intensity average” value in the data set with U87H-GFP [4] (Aza retained for 144 h, identical final concentrations, versus 48 h experiment (data not shown)) is “same shift”. Also, the “shift of FACS fluorescence profile” value with U87 [5] (20 μM Aza) is reported as “small shift”. Besides, the “increase in the fluorescence intensity mean value” in the data set on U87 [5] (highest concentration used (40 μM Aza)) is “approximately two-fold; also recorded: less than twice”. In addition, in the data set on U87H-GFP [6] (20 μM Aza), the “increase in the green fluorescent signal” value is “clearly defined”. In addition, the “upregulation of the CMV promoter, visible due to increased GFP fluorescence” value with U87H-GFP [6] is recorded as “very strong upregulation”.
For `CC(/C=C/C(=O)NO)=C\[C@@H](C)C(=O)c1ccc(N(C)C)cc1` [TSA, trichostatin A], the “shift of FACS fluorescence profile / increase in H-GFP gene expression” value in the data set on U87H-GFP [3] (100 nM TSA) is “completely superpose those of the untreated cells; also recorded: does not induce in any way an increase”. In addition, the “increase in the fluorescence intensity mean value” is “approximately two-fold; also recorded: about a two-fold” in the data set on U87H-GFP [3] (200 nM TSA alone), “three-fold” in the data set on U87H-GFP [3] (1 μM TSA) and “four-fold” with U87H-GFP [3] (3 μM TSA). In addition, the entries for the “increase in the fluorescence intensity” value in the data set with U87H-GFP [3] (500 nM TSA) and in the data set on U87H-GFP [3] (TSA concentrations lower than 500 nM) were “slight but significant increase” and “not at the lower concentrations used”, respectively. The “shift of FACS fluorescence profile toward higher fluorescence intensity” value with U87H-GFP [3] (1 μM TSA) was “clearly visible; also recorded: attains a saturation threshold”. In addition, the “change in the morphology of the cells” value in the data set on tumor cells U87 is given as “a change in the morphology of the cells was observed”. Moreover, in the data set with U87 [5] (1 μM TSA), the “shift of FACS fluorescence profile” value is “small shift”. Also, the increase in fluorescence entry in the data set on U87 [5] (3 μM TSA) was “two-fold”. In addition, the “increase in the green fluorescent signal” value in the data set on U87H-GFP [6] (1 μM TSA) is “clearly defined”. The “upregulation of the CMV promoter, visible due to increased GFP fluorescence” value in the data set with U87H-GFP [6] is “very strong upregulation”. Further, in the data set on U87H-GFP [7], the “toxicity, number of living cells” value is recorded as “highly toxic”.
